Experimental data from publication PMC12775434, “Ultra-large virtual screening unveils potent agonists of the neuromodulatory orphan receptor GPR139” (Nature Communications, 2025).
Values joined by “and” are separate entries in the source; they are usually repeats but may differ in a detail not shown here. Equal entries are not always repeated.

Tests used:
Type in all cases: cell-based
[1] = target: T1, GPR139 (Gq activation) (Homo sapiens, UniProt Q6DWJ6); experiment: BRET G protein activation (dissociation) assay, Gq, HEK293A; conditions: for G protein activation, Gq: individual replicates, listed as JNJ (S)
T1 construct: expressed in transfected cells; host or cells: HEK293A (transient, Lipofectamine 2000)
T1 sequence (Q6DWJ6 1-353): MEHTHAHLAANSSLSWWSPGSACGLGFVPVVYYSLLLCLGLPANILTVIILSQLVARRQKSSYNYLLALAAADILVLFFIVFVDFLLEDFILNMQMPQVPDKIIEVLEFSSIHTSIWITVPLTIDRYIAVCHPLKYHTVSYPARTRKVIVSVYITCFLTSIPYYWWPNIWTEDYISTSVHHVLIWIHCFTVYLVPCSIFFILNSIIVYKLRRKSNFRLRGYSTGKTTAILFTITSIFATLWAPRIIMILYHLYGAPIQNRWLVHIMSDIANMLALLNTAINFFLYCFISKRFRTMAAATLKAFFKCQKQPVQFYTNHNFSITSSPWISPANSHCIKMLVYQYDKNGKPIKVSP
Description: (§1) Primary screening and pharmacological characterization of compounds were performed using a CHO-K1 cell line that stably expresses human GPR139 (GPR139-CHOk1). The GPR139-CHOk1 cell line was kindly provided by H. Lundbeck A/S, Denmark[24]. GPR139-CHOk1 cells were grown in Ham’s F-12 Kaighn’s Modification Medium (ThermoFisher #21127030) supplemented with 10% dialyzed fetal bovine serum (US origin, ThermoFisher #26400044), 100 units/mL Penicillin-Streptomycin (ThermoFisher #15140122), and 1 mg/mL Geneticin (ThermoFisher #11811031). […] M1R-CHOk1 cells were purchased from The Missouri S&T cDNA Resource Center (#CEM100TN00). M1R-CHOk1 cells were grown in Ham’s F12 Medium (ThermoFisher #21765029) supplemented with 10% fetal bovine serum (Brazilian origin, ThermoFisher #10270106), 100 units/mL Penicillin-Streptomycin, and 0.25 mg/mL Geneticin. HEK293A cells transiently transfected with GPR139 were used for additional pharmacological assessment of signaling pathways activated by GPR139. HEK239A cells were generously provided by Dr. Asuka Inoue, Tohoku University, Japan. HEK293A cells were grown in Dulbecco’s Modified Eagle Medium (ThermoFisher #31966047) supplemented with 10% dialyzed fetal bovine serum and 100 units/mL Penicillin-Streptomycin. Cell lines were maintained at 37 °C in humidified incubator equilibrated with 5% CO2.
(§2) The G protein dissociation assay developed by the lab of Kirill A. Martemyanov was used to measure the coupling of multiple G proteins by GPR139[57]. The assay was performed as described previously with minor modifications. HEK293A cells were reverse transfected 20–24 h prior to assay. 50,000 cells were plated in each well of white opaque tissue culture treated 96-well plates (PerkinElmer #6005680) previously coated with poly-D-lysine. Transfection solutions were prepared as described, and 10 µL transfection solution was mixed with 100 µL cells in each well. The cells in each well were transfected with 18.9 ng GPR139, 6.3 ng Venus 1-155 Gγ2, 6.3 ng Venus 159-239 Gβ1, 6.3 ng masGRK3ct-NanoLuc and 12.6 ng Gαi2, 12.6 ng Gαi3, 12.6 ng GαoA, 12.6 ng Gαq or 25.2 ng Gα12 using 375 nL Lipofectamine 2000 Transfection Reagent. Transfections with Gαq and Gα12 contained 6.3 ng DNA of the active subunit S1 of pertussis toxin (PTX-S1). Each transfection was normalized to 150 ng total DNA with pcDNA3.1. The BRET biosensors were a kind gift from the Martemyanov lab. On the day of the experiment the cells were washed with HEPES buffer. Test compounds were diluted in HEPES buffer from DMSO stocks (final DMSO concentration of maximally 0.3%). NanoLuc Luciferase substrate NanoGlo—furimazine (Promega #N1120) was diluted 1000-fold (final) in HEPES buffer. NanoGlo and test compounds were added, and measurements were performed after 10 s for Gi3, 15 s for Gi2 and GoA, 20 s for Gq, and 90 s for G12—the timepoint where maximal signal occurred with each G protein, ensuring proper determination of the potency for the G protein coupling. Simultaneous dual emission was measured at 535 nm and 475 nm on LUMIstar Omega Microplate Reader (BMG Labtech) at room temperature. The BRET ratio of 535 nm/475 nm (Venus/NanoLuc), reflecting the dissociation of the G protein heterotrimer, was used to determine the G protein activation. The basal BRET ratio obtained with buffer condition was subtracted from the absolute BRET ratio at a given test compound concentration, and the responses were normalized to the one obtained with 10 µM JNJ-63533054 for the activation of Gi2.
(§3) Pharmacological data and statistical analyses were performed in GraphPad Prism v9–10 (Graphpad Software Inc., San Diego, CA), which are also specifically described in the figure and table legends. […]

[2] = target: T2, GPR139 (G12 activation) (Homo sapiens, UniProt Q6DWJ6); experiment: BRET G protein activation (dissociation) assay, G12, HEK293A; conditions: for G protein activation, G12: individual replicates, listed as JNJ (S)
T2 construct: expressed in transfected cells; host or cells: HEK293A (transient, Lipofectamine 2000)
T2 sequence (Q6DWJ6 1-353): T1 sequence (Q6DWJ6 1-353)
Description: as §1, §2, §3

[3] = target: T3, GPR139 (GoA activation) (Homo sapiens, UniProt Q6DWJ6); experiment: BRET G protein activation (dissociation) assay, GoA, HEK293A; conditions: for G protein activation, GoA: individual replicates, listed as JNJ (S)
T3 construct: expressed in transfected cells; host or cells: HEK293A (transient, Lipofectamine 2000)
T3 sequence (Q6DWJ6 1-353): T1 sequence (Q6DWJ6 1-353)
Description: as §1, §2, §3

[4] = HEK293-A, normalized to JNJ-63533054 (JNJ(S))

Emax [1, 4]: 42 ± 3% | EC50 ([1]; Supplementary Table 6): 158 nM | Emax [2, 4]: 57 ± 1% | EC50 ([2]; Supplementary Table 6, read-out: pEC50 G12 (converted)): 25.1 nM | Emax [3, 4]: 114 ± 2% | EC50 ([3]; Supplementary Table 6): 79.4 nM
Compound: CC(NC(=O)CNC(=O)c1cccc(Cl)c1)c1ccccc1 (stereo not drawn) [JNJ-63533054, reference compound]
G protein activation, Gq ([1]; log [compound] M -4.5): 40 % of JNJ-63533054 at Gi2 and 47 % of JNJ-63533054 at Gi2 and 36 % of JNJ-63533054 at Gi2 | G protein activation, Gq ([1]; log [compound] M -5.0): 40 % of JNJ-63533054 at Gi2 and 47 % of JNJ-63533054 at Gi2 and 39 % of JNJ-63533054 at Gi2 | G protein activation, Gq ([1]; log [compound] M -5.5): 42 % of JNJ-63533054 at Gi2 and 44 % of JNJ-63533054 at Gi2 and 32 % of JNJ-63533054 at Gi2 | G protein activation, Gq ([1]; log [compound] M -6.0): 39 % of JNJ-63533054 at Gi2 and 42 % of JNJ-63533054 at Gi2 and 31 % of JNJ-63533054 at Gi2 | G protein activation, Gq ([1]; log [compound] M -6.5): 29 % of JNJ-63533054 at Gi2 and 32 % of JNJ-63533054 at Gi2 and 23 % of JNJ-63533054 at Gi2 | G protein activation, Gq ([1]; log [compound] M -7.0): 17 % of JNJ-63533054 at Gi2 (2×) and 9 % of JNJ-63533054 at Gi2 | G protein activation, Gq ([1]; log [compound] M -7.5): 5.47 % of JNJ-63533054 at Gi2 and 7 % of JNJ-63533054 at Gi2 and 1.27 % of JNJ-63533054 at Gi2 | G protein activation, Gq ([1]; log [compound] M -8.0): 1.82 % of JNJ-63533054 at Gi2 and 0.745 % of JNJ-63533054 at Gi2 and -0.2 % of JNJ-63533054 at Gi2 | G protein activation, G12 ([2]; log [compound] M -4.5): 60 % of JNJ-63533054 at Gi2 (2×) and 57 % of JNJ-63533054 at Gi2 | G protein activation, G12 ([2]; log [compound] M -5.0): 55 % of JNJ-63533054 at Gi2 and 54 % of JNJ-63533054 at Gi2 and 57 % of JNJ-63533054 at Gi2 | G protein activation, G12 ([2]; log [compound] M -5.5): 53 % of JNJ-63533054 at Gi2 and 55 % of JNJ-63533054 at Gi2 and 54 % of JNJ-63533054 at Gi2 | G protein activation, G12 ([2]; log [compound] M -6.0): 50 % of JNJ-63533054 at Gi2 and 51 % of JNJ-63533054 at Gi2 and 53 % of JNJ-63533054 at Gi2 | G protein activation, G12 ([2]; log [compound] M -6.5): 52 % of JNJ-63533054 at Gi2 and 46 % of JNJ-63533054 at Gi2 and 48 % of JNJ-63533054 at Gi2 | G protein activation, G12 ([2]; log [compound] M -7.0): 47 % of JNJ-63533054 at Gi2 and 42 % of JNJ-63533054 at Gi2 and 38 % of JNJ-63533054 at Gi2 | G protein activation, G12 ([2]; log [compound] M -7.5): 32 % of JNJ-63533054 at Gi2 and 33 % of JNJ-63533054 at Gi2 and 26 % of JNJ-63533054 at Gi2 | G protein activation, G12 ([2]; log [compound] M -8.0): 22 % of JNJ-63533054 at Gi2 and 21 % of JNJ-63533054 at Gi2 and 16 % of JNJ-63533054 at Gi2 | G protein activation, GoA ([3]; log [compound] M -4.5): 119 % of JNJ-63533054 at Gi2 (2×) and 112 % of JNJ-63533054 at Gi2 | G protein activation, GoA ([3]; log [compound] M -5.0): 117 % of JNJ-63533054 at Gi2 (2×) and 106 % of JNJ-63533054 at Gi2 | G protein activation, GoA ([3]; log [compound] M -5.5): 113 % of JNJ-63533054 at Gi2 and 106 % of JNJ-63533054 at Gi2 (2×) | G protein activation, GoA ([3]; log [compound] M -6.0): 108 % of JNJ-63533054 at Gi2 and 94 % of JNJ-63533054 at Gi2 and 102 % of JNJ-63533054 at Gi2 | G protein activation, GoA ([3]; log [compound] M -6.5): 97 % of JNJ-63533054 at Gi2 and 82 % of JNJ-63533054 at Gi2 and 91 % of JNJ-63533054 at Gi2 | G protein activation, GoA ([3]; log [compound] M -7.0): 74 % of JNJ-63533054 at Gi2 and 64 % of JNJ-63533054 at Gi2 and 65 % of JNJ-63533054 at Gi2 | G protein activation, GoA ([3]; log [compound] M -7.5): 43 % of JNJ-63533054 at Gi2 and 34 % of JNJ-63533054 at Gi2 and 33 % of JNJ-63533054 at Gi2 | G protein activation, GoA ([3]; log [compound] M -8.0): 17 % of JNJ-63533054 at Gi2 and 12 % of JNJ-63533054 at Gi2 and 13 % of JNJ-63533054 at Gi2
